The results in this text go back to patent publication US20200362301A1, “EFFICIENT, SCALABLE PRODUCTION OF HUMAN RETINAL PROGENITORS IN VITRO” (Wisconsin Alumni Research Foundation, priority 2019, published 2020).

Common to all, as to assay type: cell-based, human
The subject of test [1] is wildtype cells (H9 hESCs) in retinal differentiation. The test can be described thus: qPCR of retinal gene (EFTF) expression in wildtype cells during retinal differentiation under WNT agonist/antagonist. As for the experimental part:
WNT8B has a restricted expression in the developing dorsal forebrain (Lako et al., 1998) and plays a repressive role in retinal fate specification (Liu et al., 2010). […] Given the direct connection between PAX6D and WNT8B, we hypothesized that PAX6D regulates retinal specification by repressing WNT8B transcription and thus WNT activity. Indeed, treatment with WNT agonist (CHIR99021, 3 μM) in wildtype cells from day 0 to day 10 suppressed the expression EFTFs. In contrast, treatment with a WNT antagonist (IWR1, 2.5 μM) in wildtype cells enhanced the expression of EFTFs (FIG. 8B).
Retinal differentiation from human pluripotent stem cells was performed using the published protocol (Zhong et al., 2014). Briefly, hESCs were passaged to Vitronectin-coated plates and cultured to 60-70% confluency. On day 0 of retinal differentiation, cells were enzymatically detached by dispase (1 mg/ml) and cultured in suspension with E8 medium to form embryoid bodies (EB). […]
(§1) Total RNA was isolated with the RNeasy Plus Mini Kit according to the manufacturer's instructions. For quantitative PCR (qPCR), cDNA was synthesized using PrimeScrip RT Reagent Kit. qPCR was performed using iTaq Universal SYBR Green Supermix. […]

For test [2], the system named is PAX6D TetOn cells. The test can be described thus: qPCR of retinal gene expression in PAX6D TetOn cells with DOX induction, with or without WNT agonist.
Excerpt: (§2) We then examined the retinal progenitor population when PAX6A or PAX6D was induced. We turned on PAX6A and PAX6D separately in PAX6 KO cells after neuroepithelial cells were generated at day 6 and monitored the retinal progenitor generation along retinal differentiation. […] Thus, PAX6D but not PAX6A restores the PAX6 function in retinal specification.
(§3) We then asked if the failure of retinal specification in the PAX6D KO cells is rescued by regulating WNT signaling. Treatment of the PAX6D KO cells with IWR1 during retinal differentiation from day 0 to day 10 increased the expression of retinal related genes, including VSX2, LHX2, HES5, SIX3 and SIX6 (FIG. 8C). […] To further corroborate the role of WNTs in mediating the function of PAX6D in retinal specification, we then activated WNT pathway signaling under PAX6D induction along retinal differentiation.
(§4) PAX6 KO and PAX6D KO cell lines were designed by inserting the PGK-Puromycin in exon 8 and exon alpha of the PAX6 gene, respectively, which terminates the normal translation of PAX6 genes early and PAX6D isoform specifically. The PAX6 KO cells were then used to generate PAX6A TetOn and PAX6D TetOn by inserting the TetOn-PAX6A-3×FLAG and TetOn-PAX6D-3×FLAG into the AAVS1 site of PAX6 KO genome.
Retinal differentiation from human pluripotent stem cells was performed using the published protocol (Zhong et al., 2014). Briefly, hESCs were passaged to Vitronectin-coated plates and cultured to 60-70% confluency. On day 0 of retinal differentiation, cells were enzymatically detached by dispase (1 mg/ml) and cultured in suspension with E8 medium to form embryoid bodies (EB). EBs were gradually transitioned into neural induction medium (NIM) containing DMEM/F12 (1:1), 1% N2 and 1×NEAA by replacing the medium with a 3:1 ratio of E8/NIM on day 1, 1:1 on day 2, and 100% NIM on day 3. […]
as §1

A further test deals with PAX6A TetOn cells. The test can be described thus: Flow cytometry of SOX1-/SOX2+ retinal progenitor population in PAX6A TetOn cells. The note with it: PAX6A induced (from 2.45% without induction). As for the experimental part: as §2
(§5) Flow cytometry was performed using Transcription Factor Buffer Set which is designed for transcription factor staining following manufacturer's instruction. Briefly, single cells were prepared using TrypLE Express Enzyme and fixed in the fixation buffer provided by the kit at 2-8° C. for 45 min. After 3 washings with the permeable buffer, the primary antibodies (PE-SOX1, V450-SOX2) were added to cells for 45 min at 2-8° C. in a light-tight box. The cells were washed 3 times before analyzed by flow cytometry (BD LSR or BD LSRII). Data analysis was performed using FlowJo.

The subject of test [3] is PAX6D TetOn cells. Description: Flow cytometry of SOX1-/SOX2+ retinal progenitor population in PAX6D TetOn cells. The conditions noted are these: PAX6D induced (from 2.71% without induction). The procedure: as §2, §5
The next test relates to PAX6D KO cells. Description: qPCR of retinal gene expression in PAX6D KO cells treated with WNT antagonist (rescue of retinal differentiation). The conditions noted are these: treatment from day 0 to day 10 of retinal differentiation.
Excerpt: as §3, §4
Retinal differentiation from human pluripotent stem cells was performed using the published protocol (Zhong et al., 2014). Briefly, hESCs were passaged to Vitronectin-coated plates and cultured to 60-70% confluency. […]
as §1

Where [4] appears, read: PAX6D TetOn in PAX6 KO, DOX for 7 days from day 6 of retinal differentiation.

For `Cc1c[nH]c(-c2cnc(NCCNc3ccc(C#N)cn3)nc2-c2ccc(Cl)cc2Cl)n1` [CHIR99021], the “expression of EFTFs (qPCR)” value in test [1] (WNT agonist 3 μM from day 0 to day 10 of retinal differentiation) is reported as “suppressed”. Moreover, the “PAX6D-induced retinal differentiation (expression of VSX2, LHX2, SIX6, NR2F1 and VAX2 at day 10)” value with PAX6D TetOn cells [2] (PAX6D TetOn cells induced by DOX, WNT agonist from day 0 to day 10) is “completely blocked”.

With `C[C@H]1c2cccc(O)c2C(=O)C2=C(O)[C@]3(O)C(=O)C(C(N)=O)=C(O)[C@@H](N(C)C)[C@@H]3[C@@H](O)[C@@H]21` [DOX, doxycycline], the “SOX1-/SOX2+ retinal progenitor population (flow cytometry)” value with PAX6A TetOn cells stood at 2.22%. The “SOX1-/SOX2+ retinal progenitor population (flow cytometry)” value with PAX6D TetOn cells [3] was 23.1%. In the test with PAX6D TetOn cells [2] (setting [4]), the VAX2 expression increase stood at 2 fold and the VSX2 expression increase is 3 fold.

For `O=C(Nc1cccc2cccnc12)c1ccc(N2C(=O)[C@@H]3[C@H](C2=O)[C@@H]2C=C[C@H]3C2)cc1` [IWR1], the “expression of EFTFs (qPCR)” value in test [1] (WNT antagonist 2.5 μM) is given as “enhanced”. In the test on PAX6D KO cells, the “expression of retinal related genes, including VSX2, LHX2, HES5, SIX3 and SIX6” value was “increased”.
